# Assays:
# [1] = molecular target: Isocitrate dehydrogenase [NADP] cytoplasmic (Homo sapiens, UniProt O75874); assay: Inhibition of N-terminal His-tagged human recombinant IDH1 R132H mutant (1 to 414) expressed in Sf9 incubated for 60 mins by size-exclusion chromatography analysis
# [2] = molecular target: T1, Isocitrate dehydrogenase [NADP], mitochondrial (Homo sapiens, UniProt P48735); assay: Inhibition of N-terminal His-tagged human recombinant IDH2 R140Q mutant (41 to 452) expressed in baculovirus system incubated for 60 mins by size-exclusion chromatography analysis
# T1 sequence (P48735 whole entry): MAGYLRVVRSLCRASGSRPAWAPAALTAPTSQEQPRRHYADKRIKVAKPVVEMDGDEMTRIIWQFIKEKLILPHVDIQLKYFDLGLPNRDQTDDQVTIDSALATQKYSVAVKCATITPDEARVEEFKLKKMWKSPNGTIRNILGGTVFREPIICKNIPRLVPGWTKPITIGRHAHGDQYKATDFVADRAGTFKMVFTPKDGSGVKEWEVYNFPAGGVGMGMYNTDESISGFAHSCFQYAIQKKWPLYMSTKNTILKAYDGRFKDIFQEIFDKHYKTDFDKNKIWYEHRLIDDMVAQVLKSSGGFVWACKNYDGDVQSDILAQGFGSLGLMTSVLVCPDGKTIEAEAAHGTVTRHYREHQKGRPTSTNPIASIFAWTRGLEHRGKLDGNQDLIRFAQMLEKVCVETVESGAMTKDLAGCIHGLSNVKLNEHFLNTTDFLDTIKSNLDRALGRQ
# Sequence of Isocitrate dehydrogenase [NADP] cytoplasmic (O75874 2-414 R132H limits assumed): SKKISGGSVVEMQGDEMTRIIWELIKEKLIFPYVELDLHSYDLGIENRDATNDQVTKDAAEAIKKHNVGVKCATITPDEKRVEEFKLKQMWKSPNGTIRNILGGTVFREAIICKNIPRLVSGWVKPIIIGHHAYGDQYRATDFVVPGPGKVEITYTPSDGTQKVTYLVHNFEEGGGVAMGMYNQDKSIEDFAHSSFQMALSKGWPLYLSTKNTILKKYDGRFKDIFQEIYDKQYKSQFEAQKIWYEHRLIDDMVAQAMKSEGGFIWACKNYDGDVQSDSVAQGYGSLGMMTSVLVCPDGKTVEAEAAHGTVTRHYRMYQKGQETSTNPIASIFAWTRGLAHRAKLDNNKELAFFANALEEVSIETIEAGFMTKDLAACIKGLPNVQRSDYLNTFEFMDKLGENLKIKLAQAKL
SMILES,IC50 [1],IC50 [2]
"FC1(F)CCC(Nc2nc(NC3Cc4ccccc4C3)nc(-c3cccc(C(F)(F)F)n3)n2)C1 (stereo not drawn) [US10028961, Compound 152]",< 50 nM,< 50 nM
"C[C@@H](Nc1nc(Nc2ccnc(C3(C#N)CC3)c2)nc(-c2cccc(C(F)(F)F)n2)n1)C(F)(F)F [US10028961, Compound 352]",–,< 50 nM
